Measurements published in ChEMBL document CHEMBL4418912, “Methods of identifying antagonists of the hTAS2R46 bitter taste receptor” (2014).
Active and inactive are the calls of the source. The rule behind the calls is not given here.

Experiments:
Format in all cases: functional, cell-based
[1] = target: T1, Taste receptor type 2 member 3 (Homo sapiens) (UniProt Q9NYW6); assay: Agonist activity at recombinant human N-terminal rat ST3 receptor-fused TAS2R3 expressed in HEK293T cells co-expressing Galpha16gust44 assessed as increase in intracellular calcium level at 100 uM by FLIPR assay
T1 sequence (whole entry): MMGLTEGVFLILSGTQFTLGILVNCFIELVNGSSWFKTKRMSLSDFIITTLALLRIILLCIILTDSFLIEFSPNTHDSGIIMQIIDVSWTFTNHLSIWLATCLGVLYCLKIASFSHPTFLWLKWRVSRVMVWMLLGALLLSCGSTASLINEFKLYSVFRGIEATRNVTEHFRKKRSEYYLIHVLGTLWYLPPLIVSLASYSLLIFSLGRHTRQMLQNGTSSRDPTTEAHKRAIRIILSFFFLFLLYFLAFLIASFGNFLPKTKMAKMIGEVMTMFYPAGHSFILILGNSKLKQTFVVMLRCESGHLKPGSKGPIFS

[2] = target: T2, Taste receptor type 2 member 16 (Homo sapiens) (UniProt Q9NYV7); assay: Agonist activity at recombinant human N-terminal rat ST3 receptor-fused TAS2R16 expressed in HEK293T cells co-expressing Galpha16gust44 assessed as increase in intracellular calcium level at 100 uM by FLIPR assay
T2 sequence (whole entry): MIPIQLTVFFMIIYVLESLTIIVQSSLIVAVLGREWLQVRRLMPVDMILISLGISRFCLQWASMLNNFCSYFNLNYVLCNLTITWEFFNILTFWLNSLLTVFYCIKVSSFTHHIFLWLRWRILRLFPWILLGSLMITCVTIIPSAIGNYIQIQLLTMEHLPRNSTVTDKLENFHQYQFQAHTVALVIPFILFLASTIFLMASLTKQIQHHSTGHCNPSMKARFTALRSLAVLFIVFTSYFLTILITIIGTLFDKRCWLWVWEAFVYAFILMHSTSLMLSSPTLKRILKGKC

[3] = target: Taste receptor type 2 member 40 (Homo sapiens) (UniProt P59535); assay: Agonist activity at recombinant human N-terminal rat ST3 receptor-fused TAS2R40 expressed in HEK293T cells co-expressing Galpha16gust44 assessed as increase in intracellular calcium level at 100 uM by FLIPR assay
Sequence of Taste receptor type 2 member 40 (Homo sapiens) (P59535 whole entry, the tested form may be a part): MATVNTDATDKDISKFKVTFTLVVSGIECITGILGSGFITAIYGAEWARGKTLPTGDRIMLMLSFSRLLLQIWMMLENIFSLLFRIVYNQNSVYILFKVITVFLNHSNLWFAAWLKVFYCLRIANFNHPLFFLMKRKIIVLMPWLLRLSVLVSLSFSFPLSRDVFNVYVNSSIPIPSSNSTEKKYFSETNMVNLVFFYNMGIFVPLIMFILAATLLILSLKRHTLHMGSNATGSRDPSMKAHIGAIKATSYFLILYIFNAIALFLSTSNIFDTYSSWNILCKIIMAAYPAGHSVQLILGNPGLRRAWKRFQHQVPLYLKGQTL

[4] = target: Taste receptor type 2 member 45 (Homo sapiens) (UniProt P59539); assay: Agonist activity at recombinant human N-terminal rat ST3 receptor-fused TAS2R45 expressed in HEK293T cells co-expressing Galpha16gust44 assessed as increase in intracellular calcium level at 100 uM by FLIPR assay
Sequence of Taste receptor type 2 member 45 (Homo sapiens) (P59539 whole entry, the tested form may be a part): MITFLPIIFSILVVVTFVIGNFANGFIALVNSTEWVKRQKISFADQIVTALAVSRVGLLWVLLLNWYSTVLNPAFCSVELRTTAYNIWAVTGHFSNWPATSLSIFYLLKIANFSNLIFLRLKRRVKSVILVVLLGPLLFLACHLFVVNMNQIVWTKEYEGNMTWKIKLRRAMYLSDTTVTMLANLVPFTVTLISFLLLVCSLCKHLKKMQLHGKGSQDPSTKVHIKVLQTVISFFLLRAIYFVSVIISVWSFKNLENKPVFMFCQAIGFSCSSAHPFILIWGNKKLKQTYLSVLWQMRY

[5] = target: T3, Taste receptor type 2 member 30 (Homo sapiens) (UniProt P59541); assay: Agonist activity at recombinant human N-terminal rat ST3 receptor-fused TAS2R47 expressed in HEK293T cells co-expressing Galpha16gust44 assessed as increase in intracellular calcium level at 100 uM by FLIPR assay
T3 sequence (whole entry): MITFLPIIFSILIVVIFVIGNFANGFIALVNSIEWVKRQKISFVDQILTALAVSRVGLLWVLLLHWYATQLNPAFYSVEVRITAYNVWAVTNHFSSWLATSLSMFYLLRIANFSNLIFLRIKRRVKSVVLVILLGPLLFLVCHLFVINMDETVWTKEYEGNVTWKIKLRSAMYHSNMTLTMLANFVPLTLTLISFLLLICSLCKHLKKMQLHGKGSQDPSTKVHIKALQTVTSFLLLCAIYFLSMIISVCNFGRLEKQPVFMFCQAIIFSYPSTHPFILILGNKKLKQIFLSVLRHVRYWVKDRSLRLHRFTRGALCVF

[6] = target: T4, Taste receptor type 2 member 50 (Homo sapiens) (UniProt P59544); assay: Agonist activity at recombinant human N-terminal rat ST3 receptor-fused TAS2R50 expressed in HEK293T cells co-expressing Galpha16gust44 assessed as increase in intracellular calcium level at 100 uM by FLIPR assay
T4 sequence (whole entry): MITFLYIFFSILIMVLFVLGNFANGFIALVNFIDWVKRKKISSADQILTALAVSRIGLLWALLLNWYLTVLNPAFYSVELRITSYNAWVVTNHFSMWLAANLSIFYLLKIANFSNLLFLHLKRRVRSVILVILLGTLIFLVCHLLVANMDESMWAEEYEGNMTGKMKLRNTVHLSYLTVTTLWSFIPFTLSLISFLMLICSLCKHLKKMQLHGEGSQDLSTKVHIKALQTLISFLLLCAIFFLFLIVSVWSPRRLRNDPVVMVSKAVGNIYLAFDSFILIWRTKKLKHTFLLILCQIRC

[7] = target: T5, Taste receptor type 2 member 10 (Homo sapiens) (UniProt Q9NYW0); assay: (§1) Competitive-antagonist activity at recombinant human N-terminal rat ST3 receptor-fused TAS2R10 expressed in HEK293T cells co-expressing Galpha16gust44 assessed as inhibition of strychnine-induced increase in intracellular calcium level by measuring maximum signal amplitude at 10 uM by FLIPR assay (reference value: 0.42 +/- 0.09 a.u.)
T5 sequence (whole entry): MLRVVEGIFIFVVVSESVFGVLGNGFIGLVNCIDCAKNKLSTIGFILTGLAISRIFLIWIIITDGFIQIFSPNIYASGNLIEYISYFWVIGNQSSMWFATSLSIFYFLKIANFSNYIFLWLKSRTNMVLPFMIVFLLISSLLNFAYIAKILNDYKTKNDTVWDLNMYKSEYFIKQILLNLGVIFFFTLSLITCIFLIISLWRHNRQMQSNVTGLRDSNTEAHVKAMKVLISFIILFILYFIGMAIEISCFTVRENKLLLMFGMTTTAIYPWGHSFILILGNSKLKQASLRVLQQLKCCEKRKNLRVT

[8] = target: T5, Taste receptor type 2 member 10 (Homo sapiens); assay: as §1, with “at 30” for “at 10”
[9] = target: T6, Taste receptor type 2 member 5 (Homo sapiens) (UniProt Q9NYW4); assay: Antagonist activity at recombinant human N-terminal rat ST3 receptor-fused TAS2R5 expressed in HEK293T cells co-expressing Galpha16gust44 assessed as inhibition of denatonium saccharide-induced intracellular calcium level at 100 uM by FLIPR assay
T6 sequence (whole entry): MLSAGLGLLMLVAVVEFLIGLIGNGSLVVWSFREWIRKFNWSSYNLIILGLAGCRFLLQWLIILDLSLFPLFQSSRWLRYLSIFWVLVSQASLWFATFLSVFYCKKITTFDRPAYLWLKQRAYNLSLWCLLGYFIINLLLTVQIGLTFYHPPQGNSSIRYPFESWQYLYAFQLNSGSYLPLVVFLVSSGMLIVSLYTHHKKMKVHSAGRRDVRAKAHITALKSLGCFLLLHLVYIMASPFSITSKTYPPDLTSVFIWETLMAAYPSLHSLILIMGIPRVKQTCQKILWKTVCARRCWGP

`C/C1=C\C[C@H](O)/C(C)=C/[C@H]2OC(=O)[C@@H](C)[C@@H]2CC1` was tested. Which Activity [1] did it give?
Its Activity is “inactive”.

And the Activity [2]?
Its Activity is “inactive”.

What about the Activity [3] of the same compound?
The Activity was “inactive”.

What about the Activity [4] of the same compound?
Its Activity is “inactive”.

And the Activity [5]?
The Activity was “inactive”.

What about the Activity [6] of the same compound?
Its Activity is “inactive”.

What about the Activity [7] of the same compound?
The Activity was 0.4 a.u.

What about the Activity [8] of the same compound?
The Activity was 0.41 a.u.

`C/C1=C\C[C@H](O)[C@@H](C)C[C@H]2OC(=O)[C@@H](C)[C@@H]2CC1` was tested. Which inhibition [9] did it give?
Its inhibition is “inactive”.
